Test results: patent US20020009421A1, “Therapy following skin injury from exposure to ultraviolet radiation” (priority 2000, published 2002)

Tests used:
sunburn = assay: In Vivo Evaluation: sunburn in a human subject after about six hours of intense sunlight, oral self-administration; settings: for relief of pain: oral self-administration, adult with severe sunburn, celecoxib 100 mg
Source text: 1. Subject: An adult, person of light complexion whose skin had not been substantially exposed to strong sunlight for approximately six months.
2. Protocol: The subject was exposed to intense sunlight at a swimming pool for approximately six hours.
3. […] At that time the subject self-administered an oral dose of acetaminophen (Extra Strength Tylenol®) to relieve the pain. […] Later in the evening the subject was unable to sleep due to the continued pain. At that time the subject self-administered a 100 mg dose of Celebrex® (celecoxib). […] Approximately twelve hours later the subject took a second dose of celecoxib to relieve the onset of discomfort due to the sunburn.

UV-B mediated injury = settings: cited from earlier work
[1] = test system: UV radiation-induced tumor formation and UV-B mediated inflammatory response; settings: oral administration, cited from earlier work

For `CC(=O)Nc1ccc(O)cc1` [acetaminophen], the relief of pain (sunburn) was “no relief in pain”.
In the case of `Cc1ccc(-c2cc(C(F)(F)F)nn2-c2ccc(S(N)(=O)=O)cc2)cc1` [celecoxib, 4-[5-(4-methylphenyl)-3-(trifluoromethyl)-1H-pyrazol-1-yl]benzenesulfonamide], the “cutaneous inflammatory response after exposure of skin to UV-B radiation” value (UV-B mediated injury; oral administration) is given as “failed to block the cutaneous inflammatory response”, the “parameters of UV-B mediated injury” value (UV-B mediated injury; topical application) is given as “reduce many of the parameters of UV-B mediated injury” and the “time to almost complete relief of pain following administration” value (sunburn; 100 mg oral dose of Celebrex, adult with sunburn) is given as no more than 1 h. For the same compound, the relief of pain (sunburn) was “almost complete relief of pain”, the “healing of the burn (blistering, peeling of surface skin)” value (sunburn; two oral doses of celecoxib about twelve hours apart, subject's report) was “rapid healing of the burn with no blistering or peeling of surface skin” and the tumor formation ([1]; animals chronically exposed to UV radiation) was “reduced tumor formation”. For the same compound, the “acute UV-B mediated inflammatory response involving increased cell proliferation and edema” value ([1]; following acute or chronic exposure to UV radiation) was “failed to inhibit the acute UV-B mediated inflammatory response” and the “UV-B induced prostaglandin synthesis” value [1] was “block the UV-B induced prostaglandin synthesis”.
